Data from ChEMBL document CHEMBL1124628, “Topically active carbonic anhydrase inhibitors. 1. O-acyl derivatives of 6-hydroxybenzothiazole-2-sulfonamide” (J Med Chem, 1989).

Tests used:
Oryctolagus cuniculus [1] = organism: Oryctolagus cuniculus; assay: Change in intraocular pressure in Albino rabbit when 10% of compound suspension bilaterally instilled in 3 doses of 20, 15 and 15 microL at 5 minute intervals determined by recovery rate assay; type: functional, Eye
Carbonic anhydrase 2 [2] = molecular target: T1, Carbonic anhydrase 2 (Homo sapiens, UniProt P00918)
Description: In vitro inhibition of human Carbonic Anhydrase II

Oryctolagus cuniculus [3] = organism: Oryctolagus cuniculus; assay: Change in intraocular pressure in Albino rabbit when 5% of compound suspension bilaterally instilled in 3 doses of 20, 15 and 15 microL at 5 minute intervals determined by recovery rate assay; type: functional, Eye
Carbonic anhydrase 2 [4] = molecular target: T1, Carbonic anhydrase 2; assay: In vitro inhibitory activity against human Carbonic anhydrase II; settings: read-out: I50
[5] = Cleavage by corneal esterase at 37 degree C and at pH 7.4; type: ADME, tissue-based, Cornea
Oryctolagus cuniculus [6] = organism: Oryctolagus cuniculus; assay: Corneal penetration rate constant (k) for excised denuded cornea of albino rabbit; type: functional
[7] = In vitro susceptibility to nucleophilic attack by reduced glutathione at 37 degree C and at pH 7.4; type: ADME
Oryctolagus cuniculus [8] = organism: Oryctolagus cuniculus; assay: Corneal penetration rate constant (k) for excised intact cornea of albino rabbit; type: functional
Oryctolagus cuniculus [9] = assay: Maximum decrease in intraocular pressure in Albino rabbit during 5 hours observation period after topical instillation of 5% suspension in alpha-Chymotrypsin assay; type: functional, Eye
Oryctolagus cuniculus [10] = assay: Maximum decrease in intraocular pressure in Albino rabbit during 5 hours observation period after topical instillation of 0.5% suspension in alpha-Chymotrypsin assay; type: functional, Eye
Oryctolagus cuniculus [11] = assay: Maximum decrease in intraocular pressure in Albino rabbit during 5 hours observation period after topical instillation of 1% suspension in alpha-Chymotrypsin assay; type: functional, Eye
Oryctolagus cuniculus [12] = organism: Oryctolagus cuniculus; assay: Change in intraocular pressure in Albino rabbit when 2% suspension of compound bilaterally instilled in a single dose of 50 microL determined by recovery rate assay; type: functional, Eye
Oryctolagus cuniculus [13] = organism: Oryctolagus cuniculus; assay: Change in intraocular pressure in Albino rabbit when 1% suspension of compound bilaterally instilled in a single dose of 50 microL determined by recovery rate assay; type: functional, Eye
Oryctolagus cuniculus [14] = organism: Oryctolagus cuniculus; assay: % change in intraocular pressure in Albino rabbit when 10% suspension bilaterally instilled in 3 divided doses of 20, 15 and 15 microL at 5 minute intervals determined by recovery rate assay; type: functional
Oryctolagus cuniculus [15] = assay: Maximum decrease in intraocular pressure in Albino rabbit during 5 hours observation period after topical instillation of 5% suspension; type: functional, Eye
Oryctolagus cuniculus [16] = assay: Maximum decrease in intraocular pressure in Albino rabbit during 5 hours observation period after topical instillation of 0.5% suspension; type: functional, Eye
Oryctolagus cuniculus [17] = assay: Maximum decrease in intraocular pressure in Albino rabbit during 5 hours observation period after topical instillation of 1% suspension; type: functional, Eye
Oryctolagus cuniculus [18] = organism: Oryctolagus cuniculus; assay: Change in intraocular pressure in Albino rabbit when 2% of compound suspension instilled in a single dose of 50 microL determined by recovery rate assay

CCOP(=O)(OCC)Oc1ccc2nc(S(N)(=O)=O)sc2c1
Change (Oryctolagus cuniculus [1]): -22%
IC50 (Carbonic anhydrase 2 [2]): 1.8 nM

CN(C)C(=O)Oc1ccc2nc(S(N)(=O)=O)sc2c1
Change (Oryctolagus cuniculus [3]): 2%
Change (Oryctolagus cuniculus [1]): -32%
IC50 (Carbonic anhydrase 2 [2]): 1.6 nM

NS(=O)(=O)c1nc2ccc(OC(=O)c3ccccc3)cc2s1
IC50 (Carbonic anhydrase 2 [4]): 8 nM
half-life [5]: 30 min
Change (Oryctolagus cuniculus [3]): 11%
K (Oryctolagus cuniculus [6]): 0.0152 h⁻¹
Change (Oryctolagus cuniculus [1]): -25%
Reaction [7]: 50%
K (Oryctolagus cuniculus [8]): 0.035 h⁻¹

CCCCCC(=O)Oc1ccc2nc(S(N)(=O)=O)sc2c1
half-life [5]: 2 min
K (Oryctolagus cuniculus [6]): 0.0182 h⁻¹
IC50 (Carbonic anhydrase 2 [2]): 4 nM
K (Oryctolagus cuniculus [8]): 0.0152 h⁻¹

CN(C)Cc1ccc(C(=O)Oc2ccc3nc(S(N)(=O)=O)sc3c2)cc1
IC50 (Carbonic anhydrase 2 [4]): 4 nM

NS(=O)(=O)c1nc2ccc(OC(=O)Cc3ccc(Cl)cc3)cc2s1
IC50 (Carbonic anhydrase 2 [4]): 10 nM

CC(=O)Nc1nnc(S(N)(=O)=O)s1 [ACETAZOLAMIDE]
Reaction [7]: 3%

CN(C)c1ccc(C(=O)Oc2ccc3nc(S(N)(=O)=O)sc3c2)cc1
IC50 (Carbonic anhydrase 2 [4]): 60 nM
Change (Oryctolagus cuniculus [1]): 7%

CC(C)(C)C(=O)Oc1ccc2nc(S(N)(=O)=O)sc2c1
Pressure (Oryctolagus cuniculus [9]): -9.2 mmHg
Pressure (Oryctolagus cuniculus [10]): -6.5 mmHg
Pressure (Oryctolagus cuniculus [11]): -8.2 mmHg
half-life [5]: 38 min
Change (Oryctolagus cuniculus [12]): -30%
Change (Oryctolagus cuniculus [13]): -16%
Change (Oryctolagus cuniculus [3]): -41%
Change (Oryctolagus cuniculus [1]): -47%
Reaction [7]: 50%

CCCCCCCCCCCC(=O)Oc1ccc2nc(S(N)(=O)=O)sc2c1
IC50 (Carbonic anhydrase 2 [4]): 3.1 nM
Change (Oryctolagus cuniculus [1]): -25%

Cn1cccc1C(=O)Oc1ccc2nc(S(N)(=O)=O)sc2c1
Change (Oryctolagus cuniculus [1]): -12%
IC50 (Carbonic anhydrase 2 [2]): 2.9 nM

CC(=O)Oc1ccc2nc(S(N)(=O)=O)sc2c1
Pressure (Oryctolagus cuniculus [11]): -8.8 mmHg
half-life [5]: 22 min
Change (Oryctolagus cuniculus [12]): -35%
Change (Oryctolagus cuniculus [13]): -10%
Change (Oryctolagus cuniculus [3]): -42%
K (Oryctolagus cuniculus [6]): 0.0217 h⁻¹
Change (Oryctolagus cuniculus [1]): -47%
IC50 (Carbonic anhydrase 2 [2]): 2 nM
K (Oryctolagus cuniculus [8]): 0.0165 h⁻¹

COCC(=O)Oc1ccc2nc(S(N)(=O)=O)sc2c1
IC50 (Carbonic anhydrase 2 [2]): 3.5 nM

NS(=O)(=O)c1nc2ccc(OC(=O)Cc3ccccc3)cc2s1
Pressure (Oryctolagus cuniculus [10]): -2.5 mmHg
Pressure (Oryctolagus cuniculus [11]): -6.8 mmHg
IC50 (Carbonic anhydrase 2 [4]): 30 nM
Change (Oryctolagus cuniculus [12]): 13%
Change (Oryctolagus cuniculus [3]): 4%
Change (Oryctolagus cuniculus [1]): -48%

CC(C)C(=O)Oc1ccc2nc(S(N)(=O)=O)sc2c1
Pressure (Oryctolagus cuniculus [9]): -6.2 mmHg
Pressure (Oryctolagus cuniculus [10]): -9.3 mmHg
Pressure (Oryctolagus cuniculus [11]): -6.8 mmHg
half-life [5]: 9 min
Change (Oryctolagus cuniculus [12]): -48%
Change (Oryctolagus cuniculus [13]): -38%
Change (Oryctolagus cuniculus [3]): -33%
K (Oryctolagus cuniculus [6]): 0.0162 h⁻¹
Change (Oryctolagus cuniculus [1]): -30%
IC50 (Carbonic anhydrase 2 [2]): 6.8 nM
Reaction [7]: 50%
K (Oryctolagus cuniculus [8]): 0.045 h⁻¹

NS(=O)(=O)c1nc2ccc(OC(=O)CC3CCCC3)cc2s1
IC50 (Carbonic anhydrase 2 [4]): 6 nM

COc1cccc(OC)c1C(=O)Oc1ccc2nc(S(N)(=O)=O)sc2c1
IC50 (Carbonic anhydrase 2 [2]): 4 nM

CCCC(=O)Oc1ccc2sc(S(N)(=O)=O)nc2c1
Change (Oryctolagus cuniculus [1]): -54%
IC50 (Carbonic anhydrase 2 [2]): 4 nM

CN(C)OS(=O)(=O)c1ccc2nc(S(N)(=O)=O)sc2c1
IC50 (Carbonic anhydrase 2 [2]): 1.2 nM

COCCOC(C)(C)C(=O)Oc1ccc2nc(S(N)(=O)=O)sc2c1
half-life [5]: 72 min
K (Oryctolagus cuniculus [6]): 0.015 h⁻¹
IC50 (Carbonic anhydrase 2 [2]): 1.4 nM
K (Oryctolagus cuniculus [8]): 0.0097 h⁻¹

CCOCCOCCOC(C)(C)C(=O)Oc1ccc2nc(S(N)(=O)=O)sc2c1
Pressure (Oryctolagus cuniculus [11]): -9 mmHg
Change (Oryctolagus cuniculus [12]): -21%
Change (Oryctolagus cuniculus [1]): -22%
IC50 (Carbonic anhydrase 2 [2]): 3.2 nM

NS(=O)(=O)c1nc2ccc(OC(=O)C3CCCCC3)cc2s1
Pressure (Oryctolagus cuniculus [10]): -4.6 mmHg
Pressure (Oryctolagus cuniculus [11]): -9.8 mmHg
half-life [5]: 2 min
K (Oryctolagus cuniculus [6]): 0.0175 h⁻¹
Change (Oryctolagus cuniculus [1]): -34%
IC50 (Carbonic anhydrase 2 [2]): 6 nM
Reaction [7]: 50%
K (Oryctolagus cuniculus [8]): 0.0712 h⁻¹

CCOC(C)(C)C(=O)Oc1ccc2nc(S(N)(=O)=O)sc2c1
half-life [5]: 64 min
K (Oryctolagus cuniculus [6]): 0.0162 h⁻¹
IC50 (Carbonic anhydrase 2 [2]): 1.2 nM
K (Oryctolagus cuniculus [8]): 0.0373 h⁻¹

NS(=O)(=O)c1nc2ccc(OC(=O)/C=C/c3ccccc3)cc2s1
IC50 (Carbonic anhydrase 2 [4]): 15 nM

CCCC(=O)Oc1ccc2nc(S(N)(=O)=O)sc2c1
Pressure (Oryctolagus cuniculus [10]): -5.5 mmHg
Pressure (Oryctolagus cuniculus [11]): -6.8 mmHg
half-life [5]: 6 min
Change (Oryctolagus cuniculus [12]): -30%
Change (Oryctolagus cuniculus [13]): -25%
Change (Oryctolagus cuniculus [3]): -46%
K (Oryctolagus cuniculus [6]): 0.0202 h⁻¹
Change (Oryctolagus cuniculus [1]): -50%
IC50 (Carbonic anhydrase 2 [2]): 3.2 nM
K (Oryctolagus cuniculus [8]): 0.054 h⁻¹

CC(C)(C)C(=O)Nc1c(OC(=O)C(C)(C)C)ccc2nc(S(N)(=O)=O)sc12
IC50 (Carbonic anhydrase 2 [2]): 32 nM

CCN(CC)CC1CCC(C(=O)Oc2ccc3nc(S(N)(=O)=O)sc3c2)CC1 (configuration not stated)
IC50 (Carbonic anhydrase 2 [2]): 2.8 nM

NS(=O)(=O)c1nc2ccc(O)cc2s1
Reaction [7]: 27%

CC(C)(C)C(=O)Oc1ccc2nc(S(N)(=O)=O)sc2c1N
IC50 (Carbonic anhydrase 2 [4]): 25 nM

CCOC(=O)Oc1ccc2nc(S(N)(=O)=O)sc2c1
half-life [5]: 19 min
Change (Oryctolagus cuniculus [14]): -29%
Pressure (Oryctolagus cuniculus [15]): -5.5 mmHg
K (Oryctolagus cuniculus [6]): 0.0145 h⁻¹
IC50 (Carbonic anhydrase 2 [2]): 6.8 nM
K (Oryctolagus cuniculus [8]): 0.0402 h⁻¹

CC(=O)/N=c1/sc(S(N)(=O)=O)nn1C [METHAZOLAMIDE]
Reaction [7]: 27%
K (Oryctolagus cuniculus [8]): 0.0041 h⁻¹

COC(C)(C)C(=O)Oc1ccc2nc(S(N)(=O)=O)sc2c1
half-life [5]: 36 min
K (Oryctolagus cuniculus [6]): 0.019 h⁻¹
IC50 (Carbonic anhydrase 2 [2]): 1.2 nM
K (Oryctolagus cuniculus [8]): 0.0222 h⁻¹

CC(C)(C)OC(=O)Oc1ccc2nc(S(N)(=O)=O)sc2c1
IC50 (Carbonic anhydrase 2 [2]): 10 nM

NS(=O)(=O)c1nc2cc(O)ccc2s1
IC50 (Carbonic anhydrase 2 [2]): 5 nM

CCCCCCCC(=O)Oc1ccc2nc(S(N)(=O)=O)sc2c1
Pressure (Oryctolagus cuniculus [11]): -5 mmHg
IC50 (Carbonic anhydrase 2 [4]): 1.6 nM
Change (Oryctolagus cuniculus [12]): -16%
Change (Oryctolagus cuniculus [3]): -29%
Change (Oryctolagus cuniculus [1]): -33%

CC(C)COC(=O)Oc1ccc2nc(S(N)(=O)=O)sc2c1
Pressure (Oryctolagus cuniculus [16]): -5.7 mmHg
Pressure (Oryctolagus cuniculus [17]): -6.7 mmHg
half-life [5]: 7 min
Change (Oryctolagus cuniculus [3]): -54%
K (Oryctolagus cuniculus [6]): 0.0212 h⁻¹
Change (Oryctolagus cuniculus [1]): -46%
Change (Oryctolagus cuniculus [18]): -22%
IC50 (Carbonic anhydrase 2 [2]): 2.2 nM
Reaction [7]: 50%
K (Oryctolagus cuniculus [8]): 0.0812 h⁻¹

CCOc1ccc2nc(S(N)(=O)=O)sc2c1 [ETHOXZOLAMIDE]
Reaction [7]: 36%
